Data on 15 molecules can be found in patent publication US20230203029A1 (priority 2020, published 2023).

For experiment [1], the target named is T1, human AXL cytoplasmic domain (Homo sapiens, UniProt P30530).
T1 construct: human AXL cytoplasmic domain (Thermo Fisher A31515); purchased Thermo Fisher A31515
T1 sequence (P30530 473-894 limits assumed): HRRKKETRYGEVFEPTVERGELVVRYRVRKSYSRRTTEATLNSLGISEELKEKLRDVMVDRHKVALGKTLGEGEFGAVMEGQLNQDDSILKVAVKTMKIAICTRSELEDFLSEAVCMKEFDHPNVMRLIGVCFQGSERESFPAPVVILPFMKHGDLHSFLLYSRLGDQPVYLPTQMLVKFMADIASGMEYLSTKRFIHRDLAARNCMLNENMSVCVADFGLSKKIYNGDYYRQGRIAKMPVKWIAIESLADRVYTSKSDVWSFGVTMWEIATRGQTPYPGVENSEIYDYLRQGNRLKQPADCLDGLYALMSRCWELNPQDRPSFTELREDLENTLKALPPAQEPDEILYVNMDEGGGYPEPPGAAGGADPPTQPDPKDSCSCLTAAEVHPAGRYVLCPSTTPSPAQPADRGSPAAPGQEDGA
Nature of the experiment: Assay 1b AXL HTRF KinEASE-TK assay. It is filed as biochemical. In a few lines:
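Recombinant cytoplasmic domain (5 nM) in kinase buffer with 5 mM MgCl2, 1 mM MnCl2, 1 mM DTT, 50 nM SEB plus test compounds; reaction 30 min at room temperature. EDTA-containing detection with TK antibody-cryptate/streptavidin-XL665 for 60 min; HTRF 665/620 ratio read. IC50 from 4-parameter logistic fit with variable slope.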

Experiment [2] addresses T2, recombinant human MERTK expressed in live cells (HEK 293, MERTK-Nanoluc fusion vector) (Homo sapiens, UniProt Q12866).
T2 construct: host or cells: HEK 293
T2 sequence (Q12866 21-999): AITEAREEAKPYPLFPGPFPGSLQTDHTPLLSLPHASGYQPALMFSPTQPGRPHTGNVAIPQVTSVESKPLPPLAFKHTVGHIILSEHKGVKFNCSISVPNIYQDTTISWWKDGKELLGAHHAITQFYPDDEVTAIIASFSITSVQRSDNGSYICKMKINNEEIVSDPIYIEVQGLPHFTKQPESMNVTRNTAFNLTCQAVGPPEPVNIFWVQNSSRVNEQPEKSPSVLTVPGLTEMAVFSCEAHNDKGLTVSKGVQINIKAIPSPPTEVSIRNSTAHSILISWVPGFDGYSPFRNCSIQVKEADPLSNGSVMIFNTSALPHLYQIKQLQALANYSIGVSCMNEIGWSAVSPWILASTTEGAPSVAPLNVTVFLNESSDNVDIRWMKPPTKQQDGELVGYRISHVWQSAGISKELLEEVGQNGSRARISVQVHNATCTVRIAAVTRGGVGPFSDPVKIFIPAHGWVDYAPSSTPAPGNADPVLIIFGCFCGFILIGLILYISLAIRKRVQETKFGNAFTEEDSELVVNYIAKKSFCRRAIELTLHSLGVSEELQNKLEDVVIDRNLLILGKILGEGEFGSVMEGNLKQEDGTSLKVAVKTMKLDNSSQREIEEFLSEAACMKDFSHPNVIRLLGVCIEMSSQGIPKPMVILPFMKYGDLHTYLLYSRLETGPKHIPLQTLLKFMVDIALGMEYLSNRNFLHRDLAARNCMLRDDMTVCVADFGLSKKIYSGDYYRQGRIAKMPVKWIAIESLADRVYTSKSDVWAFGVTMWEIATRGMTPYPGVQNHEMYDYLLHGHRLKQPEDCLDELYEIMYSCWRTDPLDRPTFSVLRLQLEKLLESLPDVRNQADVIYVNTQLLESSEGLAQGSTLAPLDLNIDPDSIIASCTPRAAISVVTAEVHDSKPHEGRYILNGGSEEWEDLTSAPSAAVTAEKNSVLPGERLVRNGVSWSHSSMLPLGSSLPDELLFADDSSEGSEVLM
As to the kind of experiment: Assay 2 MERTK cellular target engagement (NanoBRET TE) assay. It is filed as cell-based.

Experiment [3] deals with T3, Ba/F3 Pro B-cell line expressing BCR-human AXL kinase domain fusion protein (Homo sapiens, UniProt P30530).
T3 construct: P11274 (Breakpoint cluster region protein)
T3 sequence (P30530 536-807 limits assumed): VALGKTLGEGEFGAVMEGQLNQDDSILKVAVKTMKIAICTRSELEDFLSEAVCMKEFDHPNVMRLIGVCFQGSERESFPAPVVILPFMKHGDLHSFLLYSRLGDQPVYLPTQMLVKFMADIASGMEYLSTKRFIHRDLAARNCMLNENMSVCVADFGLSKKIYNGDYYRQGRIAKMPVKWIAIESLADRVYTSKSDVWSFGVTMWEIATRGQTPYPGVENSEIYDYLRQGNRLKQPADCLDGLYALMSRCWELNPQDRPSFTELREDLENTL
As to the kind of experiment: Assay 5 Ba/F3 cell survival assay, BCR-Axl. It counts as cell-based. The conditions noted are these: read-out: BCR-Axl Ba/F3 IC50, 48 h, CellTiter-Glo. Summed up:
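Ba/F3 cells dependent on BCR-AXL or TEL-MERTK fusion kinase (IL3-free; IL3 only for control lines) treated with compound 48 h at 37 °C, 0.25% DMSO. Viability by CellTiter-Glo luminescence; IC50 for half-maximal inhibition of survival from 4-parameter variable-slope fit.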

Setting [4] is: HEK 293 cells, tracer K9, 2 h at 37° C., read-out: Assay 2 Cell TE MER IC50.

Read-outs that look alike come from different tables or passages of the source.

For `CC(C)n1cc(C(=O)Nc2ccc(Oc3ccnc4cnc(C(=O)NC5CCN(C)CC5)cc34)cn2)c(=O)n(-c2ccc(F)cc2)c1=O` [Example 27.5, 4-[[6-[[3-(4-fluorophenyl)-1-isopropyl-2,4-dioxo-pyrimidine-5-carbonyl]amino]-3-pyridyl]oxy]-N-(1-methyl-4-piperidyl)-1,7-naphthyridine-6-carboxamide], the IC50 was determined as 9 nM in experiment [1], 30.5 nM in experiment [2] (setting [4]) and 2 nM in experiment [3].

As for `Cc1cc(NC(=O)c2cccn(-c3ccccc3)c2=O)ccc1Oc1ccnc2cnc(N3CCNCC3)cc12` [Example 30, N-[3-methyl-4-[(6-piperazin-1-yl-1,7-naphthyridin-4-yl)oxy]phenyl]-2-oxo-1-phenyl-pyridine-3-carboxamide], the IC50 was 870 nM in experiment [1], 244 nM in experiment [2] and 470 nM in experiment [3].

Turning to `CC(C)n1cc(C(=O)Nc2ccc(Oc3ccnc4cnc(N5CCNCC5)cc34)cc2)c(=O)n(-c2ccccn2)c1=O` [Example 12.3, 1-isopropyl-2,4-dioxo-N-[4-[(6-piperazin-1-yl-1,7-naphthyridin-4-yl)oxy]phenyl]-3-(2-pyridyl)pyrimidine-5-carboxamide], the results for the IC50 in experiment [1], in experiment [2] (setting [4]) and in experiment [3] were 19 nM, 244 nM and 64 nM, respectively.

On to `CC(C)n1cc(C(=O)Nc2ccc(Oc3ccnc4cnc(N5CCNCC5)cc34)cc2)c(=O)c(-c2ccc(F)cc2)c1` [Example 13, 5-(4-Fluorophenyl)-1-isopropyl-4-oxo-N-[4-[(6-piperazin-1-yl-1,7-naphthyridin-4-yl)oxy]phenyl]pyridine-3-carboxamide], for which the IC50 in experiment [1] came to 6 nM; in experiment [2] (setting [4]), 6.7 nM; in experiment [3], 13 nM.

In the case of `O=C(Nc1ccc(Oc2ccnc3cnc(N4CCN(C5COC5)CC4)cc23)cn1)c1ccnn(-c2ccc(F)cc2)c1=O` [Example 20, 2-(4-fluorophenyl)-N-[5-[[6-[4-(oxetan-3-yl)piperazin-1-yl]-1,7-naphthyridin-4-yl]oxy]-2-pyridyl]-3-oxo-pyridazine-4-carboxamide], the IC50 in experiment [1] was 7 nM; in experiment [3], 16 nM.

For the molecule `O=C(Nc1ccc(Oc2ccnc3cnc(N4CCNCC4)cc23)cc1)c1cccn(-c2ccc(F)cc2)c1=O` [Example 12.2, 1-(4-fluorophenyl)-2-oxo-N-[4-[(6-piperazin-1-yl-1,7-naphthyridin-4-yl)oxy]phenyl]pyridine-3-carboxamide], the IC50 in experiment [1] was 16 nM; in experiment [2] (setting [4]) it was 18.3 nM; in experiment [3] it was 48 nM.

Turning to `O=C(Nc1ccc(Oc2ccnc3cnc(N4CCNCC4)cc23)cc1)c1cn(C2CC2)c(=O)n(-c2ccc(F)cc2)c1=O` [Example 36, 1-cyclopropyl-3-(4-fluorophenyl)-2,4-dioxo-N-[4-[(6-piperazin-1-yl-1,7-naphthyridin-4-yl)oxy]phenyl]pyrimidine-5-carboxamide], the IC50 worked out at 5 nM in experiment [1], 68.1 nM in experiment [2] (setting [4]) and 34 nM in experiment [3].

With `CC(C)n1cc(C(=O)Nc2ccc(Oc3ccnc4cnc(C(=O)NC5CCN(C)CC5)cc34)cc2)c(=O)c(-c2ccc(F)cc2)c1` [Example 37.1, 4-[4-[[5-(4-fluorophenyl)-1-isopropyl-4-oxo-pyridine-3-carbonyl]amino]phenoxy]-N-(1-methyl-4-piperidyl)-1,7-naphthyridine-6-carboxamide], the IC50 in experiment [1] amounted to 5 nM; in experiment [2] (setting [4]) it was 8.3 nM; in experiment [3] it was 2 nM.

As for `Cn1cc(C(=O)Nc2ccc(Oc3ccnc4cnc(N5CCNCC5)cc34)cc2)c(=O)c(-c2ccc(F)cc2)c1` [Example 13.1, 5-(4-fluorophenyl)-1-methyl-4-oxo-N-[4-[(6-piperazin-1-yl-1,7-naphthyridin-4-yl)oxy]phenyl]pyridine-3-carboxamide], the IC50 amounted to 10 nM in experiment [1], 12.4 nM in experiment [2] (setting [4]) and 22 nM in experiment [3].

As to `CN1CCC(NC(=O)c2cc3c(Oc4ccc(NC(=O)c5cn(C6CC6)c(=O)n(-c6ccc(F)cc6)c5=O)cc4)ccnc3cn2)CC1` [Example 15, 4-[4-[[1-Cyclopropyl-3-(4-fluorophenyl)-2,4-dioxo-pyrimidine-5-carbonyl]amino]phenoxy]-N-(1-methyl-4-piperidyl)-1,7-naphthyridine-6-carboxamide], the values for the IC50 in experiment [1], in experiment [2] (setting [4]) and in experiment [3] were 10 nM, 133 nM and 14 nM, respectively.

As to `CN1CCC(NC(=O)c2cc3c(Oc4ccc(NC(=O)c5cccn(-c6ccccc6)c5=O)cc4F)ccnc3cn2)CC1` [Example 33, 4-[2-fluoro-4-[(2-oxo-1-phenyl-pyridine-3-carbonyl)amino]phenoxy]-N-(1-methyl-4-piperidyl)-1,7-naphthyridine-6-carboxamide], the IC50 in experiment [1] stood at 38 nM; in experiment [2] (setting [4]) it was 74.3 nM; in experiment [3] it was 30 nM.

For `C[C@H](CO)n1cc(C(=O)Nc2ccc(Oc3ccnc4cnc(C(=O)NC5CCN(C)CC5)cc34)cc2)c(=O)n(-c2ccc(F)cc2)c1=O` [Example 14, 4-[4-[[3-(4-Fluorophenyl)-2,4-dioxo-1-[(1R)-2-hydroxy-1-methyl-ethyl]pyrimidine-5-carbonyl]amino]phenoxy]-N-(1-methyl-4-piperidyl)-1,7-naphthyridine-6-carboxamide], the IC50 in experiment [1] came to 10 nM; in experiment [2] (setting [4]) it was 75.9 nM; in experiment [3], 7 nM.

In the case of `CN1CCC(NC(=O)c2cc3c(Oc4ccc(NC(=O)c5cn(C)cc(-c6ccc(F)cc6)c5=O)cc4)ccnc3cn2)CC1` [Example 37, 4-[4-[[5-(4-fluorophenyl)-1-methyl-4-oxo-pyridine-3-carbonyl]amino]phenoxy]-N-(1-methyl-4-piperidyl)-1,7-naphthyridine-6-carboxamide], the IC50 was found to be 7 nM in experiment [1], 41.4 nM in experiment [2] (setting [4]) and 17 nM in experiment [3].

Take `CN1CCC(NC(=O)c2cc3c(Nc4ccc(NC(=O)c5cccn(-c6ccccc6)c5=O)cc4)ccnc3cn2)CC1` [Example 3, N-(1-methyl-4-piperidyl)-4-[4-[(2-oxo-1-phenyl-pyridine-3-carbonyl)amino]anilino]-1,7-naphthyridine-6-carboxamide]: the values for the IC50 in experiment [1], in experiment [2] (setting [4]) and in experiment [3] were 200 nM, 26.3 nM and 45 nM, respectively.

Consider `CC(C)n1cc(C(=O)Nc2ccc(Oc3ccnc4cnc(N5CCNCC5)cc34)cc2)c(=O)n(-c2ccc(F)cn2)c1=O` [Example 12.4, 3-(5-fluoro-2-pyridyl)-1-isopropyl-2,4-dioxo-N-[4-[(6-piperazin-1-yl-1,7-naphthyridin-4-yl)oxy]phenyl]pyrimidine-5-carboxamide], for which the IC50 in experiment [1] stood at 6 nM; in experiment [2] (setting [4]), 45.4 nM; in experiment [3] it was 12 nM.
